Test results published in PubChem BioAssay (NCI).
Several values for one entry are separate records, joined by “and”; a condition that tells them apart may be missing. Equal values may be shown once.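 A five-concentration, 48-hour dose response in 96-well plates underlies each endpoint, interpolated linearly between surrounding concentrations. At the GI50, growth is halved. At the TGI there is no net growth.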

Legend:
Assay in all cases: inhibition of tumour cell growth, NCI panel, 48 h
SK-MEL-2 melanoma = tested on: SK-MEL-2 melanoma
KM12 colon = tested on: KM12 colon
MALME-3M melanoma = tested on: MALME-3M melanoma
K-562 leukemia = tested on: K-562 leukemia
HL-60(TB) leukemia = tested on: HL-60(TB) leukemia
CCRF-CEM leukemia = tested on: CCRF-CEM leukemia
SF-268 CNS = tested on: SF-268 CNS
CAKI-1 renal = tested on: CAKI-1 renal
SW-620 colon = tested on: SW-620 colon
DU-145 prostate = tested on: DU-145 prostate

O=C(CN1CCN(c2ncccn2)CC1)Nc1ccc(Cl)cc1C(=O)c1ccccc1Cl
GI50 (SK-MEL-2 melanoma): > 100 µM | TGI (SK-MEL-2 melanoma): > 100 µM | GI50 (KM12 colon): 69 µM | TGI (KM12 colon): > 100 µM | GI50 (MALME-3M melanoma): > 100 µM | TGI (MALME-3M melanoma): > 100 µM | GI50 (K-562 leukemia): 32 µM | TGI (K-562 leukemia): > 100 µM | GI50 (HL-60(TB) leukemia): 25.3 µM | TGI (HL-60(TB) leukemia): > 100 µM | GI50 (CCRF-CEM leukemia): 83.5 µM | TGI (CCRF-CEM leukemia): > 100 µM | GI50 (SF-268 CNS): > 100 µM | TGI (SF-268 CNS): > 100 µM | GI50 (CAKI-1 renal): > 100 µM | TGI (CAKI-1 renal): > 100 µM | GI50 (SW-620 colon): > 100 µM | TGI (SW-620 colon): > 100 µM | GI50 (DU-145 prostate): > 100 µM | TGI (DU-145 prostate): > 100 µM

O=[N+]([O-])c1ccc(C(c2c[nH]c3ccccc23)c2c[nH]c3ccccc23)cc1
TGI (SK-MEL-2 melanoma): 20.1 µM | TGI (KM12 colon): 28.1 µM | TGI (MALME-3M melanoma): 37.6 µM | TGI (K-562 leukemia): 48 µM | TGI (HL-60(TB) leukemia): 49 µM | TGI (CCRF-CEM leukemia): 1.17 µM | TGI (SF-268 CNS): 22.5 µM | TGI (SW-620 colon): 27.9 µM | TGI (DU-145 prostate): 20.6 µM

Nc1nc(SCc2ccccn2)c2ncn(C3CCCC3)c2n1
TGI (SK-MEL-2 melanoma): > 100 µM | TGI (KM12 colon): > 100 µM | TGI (MALME-3M melanoma): > 100 µM | TGI (K-562 leukemia): > 100 µM | TGI (HL-60(TB) leukemia): > 100 µM | TGI (CCRF-CEM leukemia): > 100 µM | TGI (SF-268 CNS): > 100 µM | TGI (CAKI-1 renal): > 100 µM | TGI (SW-620 colon): > 100 µM | TGI (DU-145 prostate): > 100 µM

C[C@@H]1C[C@@H](O)[C@]2(O)O[C@@H]3C[C@@]4(C=O)[C@@H](CC[C@@H]5[C@@H]4CC[C@]4(C)[C@@H](C6=CC(=O)OC6)CC[C@]54O)C[C@H]3O[C@@H]2O1
GI50 (SK-MEL-2 melanoma): 0.052 µM and 0.0898 µM | GI50 (KM12 colon): 0.0722 µM and 0.0346 µM | TGI (KM12 colon): 0.476 µM and 0.217 µM and 0.608 µM | GI50 (MALME-3M melanoma): 0.0256 µM and 0.0163 µM | TGI (MALME-3M melanoma): 0.032 µM and 0.0802 µM and 0.0994 µM | GI50 (K-562 leukemia): 0.0553 µM and 0.0124 µM | TGI (K-562 leukemia): 0.601 µM and 1.59 µM and 0.523 µM | GI50 (HL-60(TB) leukemia): 0.015 µM and 0.00692 µM | TGI (HL-60(TB) leukemia): 0.0285 µM and 0.0322 µM and 0.0169 µM | GI50 (CCRF-CEM leukemia): 0.005 µM | TGI (CCRF-CEM leukemia): 0.0391 µM and 0.0223 µM | GI50 (SF-268 CNS): 0.00621 µM and 0.005 µM | TGI (SF-268 CNS): 0.0151 µM and 0.0247 µM and 0.0474 µM | GI50 (CAKI-1 renal): 0.0432 µM | TGI (CAKI-1 renal): 0.0486 µM and 0.36 µM | GI50 (SW-620 colon): 0.0525 µM and 0.0111 µM | TGI (SW-620 colon): 0.0591 µM and 0.221 µM and 0.164 µM | TGI (DU-145 prostate): 0.111 µM

COc1cccc(C2CC(C)(N3CCCC3)Oc3cc4c(cc32)OCO4)c1O (stereo not given)
TGI (SK-MEL-2 melanoma): 55.8 µM | TGI (KM12 colon): > 100 µM | TGI (MALME-3M melanoma): > 100 µM | TGI (K-562 leukemia): 41.9 µM | TGI (HL-60(TB) leukemia): > 54.2 µM | TGI (CCRF-CEM leukemia): > 83.3 µM | TGI (SF-268 CNS): > 92.1 µM | TGI (CAKI-1 renal): > 100 µM | TGI (SW-620 colon): > 100 µM | TGI (DU-145 prostate): > 96.3 µM

COc1cc(C2CC(c3ccc(C)cc3)=NN2C=O)ccc1Oc1ccnc2cc(Cl)ccc12 (stereo not given)
GI50 (SK-MEL-2 melanoma): 7.39 µM | TGI (SK-MEL-2 melanoma): 18.3 µM | GI50 (KM12 colon): > 50 µM | TGI (KM12 colon): > 50 µM | GI50 (MALME-3M melanoma): > 50 µM | TGI (MALME-3M melanoma): > 50 µM | GI50 (K-562 leukemia): > 50 µM | TGI (K-562 leukemia): > 50 µM | GI50 (HL-60(TB) leukemia): > 50 µM | TGI (HL-60(TB) leukemia): > 50 µM | GI50 (CCRF-CEM leukemia): > 50 µM | TGI (CCRF-CEM leukemia): > 50 µM | GI50 (SF-268 CNS): 11.3 µM | TGI (SF-268 CNS): > 50 µM | GI50 (CAKI-1 renal): > 50 µM | TGI (CAKI-1 renal): > 50 µM | GI50 (SW-620 colon): > 50 µM | TGI (SW-620 colon): > 50 µM | GI50 (DU-145 prostate): > 50 µM | TGI (DU-145 prostate): > 50 µM

COc1cc2c3c(n(C)c(=O)c2cc1OC)-c1cc2c(cc1/C3=C\CCCCCN)OCO2
GI50 (SK-MEL-2 melanoma): 31 µM | TGI (SK-MEL-2 melanoma): > 100 µM | GI50 (KM12 colon): < 0.01 µM | TGI (KM12 colon): 90.1 µM | GI50 (MALME-3M melanoma): 8.38 µM | TGI (MALME-3M melanoma): 37.8 µM | GI50 (HL-60(TB) leukemia): 2.92 µM | TGI (HL-60(TB) leukemia): 21.9 µM | GI50 (CCRF-CEM leukemia): 0.0121 µM | TGI (CCRF-CEM leukemia): 0.0641 µM | GI50 (SF-268 CNS): 3.92 µM | TGI (SF-268 CNS): 47.9 µM | GI50 (CAKI-1 renal): 1.63 µM | TGI (CAKI-1 renal): 54.2 µM | GI50 (DU-145 prostate): 1.88 µM | TGI (DU-145 prostate): 23.1 µM

COc1ccc(C(=O)/C(Br)=C/C(=O)O)cc1
TGI (SK-MEL-2 melanoma): 29.3 µM and 32 µM | TGI (KM12 colon): 48.8 µM and 48 µM | GI50 (MALME-3M melanoma): 18.8 µM | TGI (MALME-3M melanoma): 47.3 µM and 45.2 µM | GI50 (K-562 leukemia): 18.8 µM | TGI (K-562 leukemia): 281 µM and 352 µM | GI50 (HL-60(TB) leukemia): 19.1 µM | TGI (HL-60(TB) leukemia): 95.7 µM and 128 µM | GI50 (CCRF-CEM leukemia): 3.22 µM and 9.43 µM | TGI (CCRF-CEM leukemia): 61 µM and 81.7 µM | GI50 (SF-268 CNS): 27.3 µM | TGI (SF-268 CNS): 202 µM and 225 µM | TGI (CAKI-1 renal): 148 µM and 154 µM | GI50 (SW-620 colon): 19.2 µM and 24.7 µM | TGI (SW-620 colon): 63.6 µM and 145 µM | GI50 (DU-145 prostate): 65.3 µM | TGI (DU-145 prostate): 128 µM and 202 µM
